# Like-named read-outs stand apart in the source and are kept apart here.
# Tests used:
# GSPT1 [1] = molecular target: T1, GSPT1 (Homo sapiens, UniProt P15170+Q96SW2); test: GSPT1 degradation by Compound 345 in cancer cell lines (western blot); assay type: cell-based; design: endogenous in cells; host or cells: MM1 S (ATCC CRL-2974); conditions: Compound 345 treated NSCLC lines plus Bortezomib 0.2 μM
# Method: NCI-H1155 and ABC-1 were taken as representative of N-Myc positive NSCLC. NCI-H2023 and NCI-H441 as of N-Myc low representatives. 10A: western blotting analysis performed after 6 (NCI-H1155 and ABC-1) or 24 hr (NCI-H2023 and NCI-H441) posttreatment. […] 10B: corresponding densitometry analyses of GSPT1 normalized to GAPDH. DC50 and Dmax as indicated.
# NCI-H1155 and ABC-1 were taken as representative of N-Myc high NSCLC. NCI-H2023 and NCI-H441 as of N-Myc low representatives. Left: densitometry analysis of GSPT1 normalized to GAPDH from western blotting following treatment with Compound 345 (as indicated). Right: 72 hr viability assay following treatment with Compound 345 as assessed by Cell Titer Glo. For both the GSPT1 expression plot and the cell viability plot, two Myc-driven cancer cell lines are represented by upright triangles and diamonds. Two non-Myc-driven cancer cell lines are represented by upside down triangles and circles.
# NCI-H1155 and NCI-H2023 were taken as representative of N-Myc high and low NSCLC. 12A: western blot analysis probing for GSPT1 and N-Myc following treatment with Compound 345 (as indicated). Tubulin was used as a loading control. N-Myc could not be detected by western blotting in the NCI-H2023 line. 12B: Single-sample gene set enrichment analysis (ssGSEA) results for a Myc target gene set at 6 hours (left) and 24 hours (right) after treatment. ssGSEA scores were normalized to DMSOs for each cell line and averaged for three replicates. Error bars denote+/−1 s.d. across replicates.
# NCI-H1836 and NCI-H1876 were taken as two representatives of L-Myc high SCLC. Western blot analysis probing for GSPT1 and L-Myc following treatment with Compound 345 as indicated. GAPDH was used as a loading control.
# FIGS. 16A, 16B and 16C: Activity of Compound 345 in the c-Myc high multiple myeloma MM1S cell line. […] GAPDH was used as a loading control. […] Lenalidomide was used as a benchmark. 16C: Antiproliferative activity of Compound 345 (as indicated) following treatment with Compound 345 for 72 hr as assessed by Cell Titer Glo assay.
# (§1) FIGS. 18A, 18B and 18C: Activity of Compound 345 in the c-Myc high WSU-DLCL2 lymphoma cell line. […] GAPDH was used as a loading control. 18B: Antiproliferative activity of Compound 345 (as indicated) following treatment with Compound 345 for 72 hr as assessed by Cell Titer Glo assay. […] Mice were dosed daily PO with vehicle or Compound 345 at 3, 10 mg/kg (as indicated). Tumor volumes were measured twice weekly. X-axis represents the number of days for treatment duration; y-axis represents mean tumor volume (in mm^3)±SEM. CHOP was used as a positive control for this model. Drug-free vehicle is represented by black circles; CHOP combination represented by light squares; Compound 345 3 mg/kg represented by triangles; Compound 345 10 mg/kg represented by dark squares.
# as §1, with “19A, 19B,” for “18A, 18B”, “19C:” for “18C:”, “DOHH-2” for “WSU-DLCL2”, “19B:” for “18B:”, “model.” for “model. Drug-free vehicle is represented by black circles; CHOP combination represented by light squares; Compound 345 3 mg/kg represented by triangles; Compound 345 10 mg/kg represented by dark squares.”
# Western blot analysis performed 24 hr post treatment initiation. GAPDH was used as a loading control. GSPT1 DC50 and Dmax as indicated.
# [2] = molecular target: T2, Full length wild-type cereblon CRBN (Homo sapiens, UniProt Q96SW2); test: Fluorescence polarization (FP) assay indicating cereblon binding; conditions: read-out: IC50 value
# T2 construct: Full length wild-type cereblon CRBN (80.0 nM, 10 μL) was incubated in assay buffer
# T2 sequence (Q96SW2 whole entry): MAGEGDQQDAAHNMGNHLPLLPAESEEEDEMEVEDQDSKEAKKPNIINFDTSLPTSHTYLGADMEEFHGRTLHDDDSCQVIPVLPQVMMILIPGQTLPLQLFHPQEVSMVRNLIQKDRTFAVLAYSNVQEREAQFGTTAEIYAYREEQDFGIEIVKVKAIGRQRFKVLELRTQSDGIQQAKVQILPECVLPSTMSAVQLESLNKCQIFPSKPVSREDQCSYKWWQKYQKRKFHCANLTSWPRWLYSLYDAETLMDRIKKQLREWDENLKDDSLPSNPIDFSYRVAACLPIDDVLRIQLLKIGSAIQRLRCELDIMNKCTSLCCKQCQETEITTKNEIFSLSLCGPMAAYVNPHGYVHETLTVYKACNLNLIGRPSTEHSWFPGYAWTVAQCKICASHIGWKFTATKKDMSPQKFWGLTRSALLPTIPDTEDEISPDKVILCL
# Summary of the method: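 Full-length wild-type CRBN at 80.0 nM was preincubated 30 min at room temperature with compound (12-point curve, 300–0.937 or 3000–9.3 nM) in 20 mM HEPES pH 8.0, 150 NaCl, 0.5 mM TCEP, 0.05% Tween 20. Cy5-type thalidomide-based probe added at 5 nM final; FP read after 12 h (ex 590/em 675 nm), normalized to DMSO, IC50 fitted.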
# [3] = test system: HMEC engineered to express c-Myc tagged with EGFP; test: 3D spheroid assay, myc-HMEC (CellTiterGlo3D); assay type: cell-based; conditions: Homo sapiens, 120 h, myc-HMEC, 5 days, read-out: 3D spheroid assay Code (EC50, myc-HMEC assay)
# Method: (§2) Human mammary epithelial cells (HMEC) were engineered to express either c-Myc tagged with EGFP or EGFP alone (non myc) (analogous but distinct from Kessler J D et al, Science. 2012 Jan. 20; 335(6066):348-53. doi: 10.1126/science.1212728; Hsu T Y et al, Nature. 2015 Sep. 17; 525(7569):384-8. doi: 10.1038/nature14985). The engineered cells were seeded at 1000 (myc) or 4000 (non myc) cells/well in a 384 ultra-low attachment plate in a total volume of 40 μL HMEC cell culture media (DMEM/F12+10% HI-FBS+15 mM HEPES+0.5 ug/ml Hydrocortisone+10 ug/ml Insulin+20 ng/ml EGF). Plates were spun at 1200 rpm for 5 minutes at room temperature to ensure that cells have gathered in the middle of the well and incubated at 37° C. for 48 hrs before firing with compounds. On Day 2 (48 h post seeding) cells were imaged (brightfield and EGFP fluorescence) using the Celigo imaging cytometer prior to firing compounds. For primary screens, compounds were added at three concentrations (1.25, 10 and 30 uM) in a volume of 120 nL using the ECHO acoustic dispenser and spun at 2000 rpm for 2 minutes at room temperature before incubating at 37° C. for 5 days. […] On Day 7, prior to measuring cell viability using CellTiterGlo3D, cells were imaged (brightfield and EGFP fluorescence) on the Celigo imaging cytometer. The CellTiterGlo3D reagent is added at 30 uL/well and incubated at room temperature for 30 mins. After 30 mins of incubation, luminescence readings were recorded using the Perkin Elmer EnVision reader.
# [4] = test system: HMEC engineered to express EGFP alone (non myc); test: 3D spheroid assay, non myc-HMEC (CellTiterGlo3D); assay type: cell-based; conditions: Homo sapiens, 120 h, 5 days, read-out: 3D spheroid assay Code (EC50, non myc-HMEC assay)
# Method: as §2
# GSPT1 [5] = molecular target: T1, GSPT1; test: GSPT1 degradation immunofluorescence assay in CAL-51 cells; assay type: cell-based; design: endogenous in cells; host or cells: CAL-51 (DSMZ ACC302); conditions: 6 hours, Table 4, read-out: Activity for GSPT1 degradation, Code (DC50)
# Method: CAL-51 cells were purchased from DSMZ (cat. Number ACC302), sub-cultured in 90% Dulbecco's MEM (4.5 g/L glucose, Gibco 11965)+10% heat inactivated FBS (BioConcept, 2-01F1361) and incubated at 37° C., 5% CO2. For the assay, imaging microtiterplate Cell Carrier 96 Ultra (Perkin Elmer 6055302) were pre-coated with Fibronectin (Sigma F085, 30 μl at 0.2 μg/ml) in PBS (100 μl, Gibco 14190) for 45 min at room temperature, rinsed with PBS and CAL-51 cells (30K cells/well) were plated and let to adhere overnight. Cells were treated with compounds typically using a serial dilution ranging from 30 μM to 0.1 nM for 6 hours. Compounds were stored at 10 mM DMSO stocks. Vehicle (DMSO), positive (CC-885, 10 μM) and rescue controls (positive control plus 0.2 μM bortezomib) were also included at this stage. Cells were subsequently rinsed with PBS and fixed in 10% Formalin solution (50 μl, Sigma HT5011)) for 20 mins at room temperature. Following three consecutive PBS washes (100 μl), cells were permeabilized in 0.1% Triton X-100 in PBS (Sigma 93443, 50 μl) for 15 mins at room temperature. Following three further PBS washes, 50 μl blocking buffer (1% BSA, Sigma A4503, in PBS) was added for 45 min for signal-to-noise reduction. Primary antibody (human GSPT1, Sigma HPA052488) was diluted in blocking buffer (dil. 1/300, 35 μl/well) and incubated with the cells overnight at 4° C. After three PBS washes, Alexa-fluor 488 coupled secondary antibodies (Invitrogen, A32731, dil. 1/1000), Alexa-fluor 647-Phalloidin (Invitrogen, A22287, dil. 1/200) and DAPI (Thermo, #62248, dil. 1/1000) were diluted in blocking buffer and incubated with the samples for 2 hours at room temperature. After three final PBS washes, samples were conserved in 100 μl PBS in the dark, until measurement. Image acquisition was performed on the Operetta High-Content Imager (Perkin-Elmer). Fluorescence intensity of Alexa-Fluor 488 (GSPT1), Alexa-Fluor 647 (Actin) and DAPI (Nucleus) were measured. For the determination of GSPT1 DC50 values, a custom algorithm implemented in the PerkinElmer image analysis software Harmony-Acapella® was developed. After user-defined setting of adjustment parameters, the analysis was run identically without human intervention for all image fields. DAPI staining of the nuclei was used to determine the location of cells using standard nuclei detection modules. Segmentation artifacts were removed by threshold-based filters for area, roundness and intensity. The outline of the cells was determined analogously from the sum of the normalized, smoothed DAPI and Actin channel, starting from each nucleus. The Alexa-Fluor 488 (GSPT1) signal intensity in each cell was finally measured, in order to obtain a Mean intensity per cell. GSPT1 degradation (DC50) was calculated after normalization to controls and data import in CDD vault Database, using non-linear regression.
# T1 sequence (P15170 whole entry): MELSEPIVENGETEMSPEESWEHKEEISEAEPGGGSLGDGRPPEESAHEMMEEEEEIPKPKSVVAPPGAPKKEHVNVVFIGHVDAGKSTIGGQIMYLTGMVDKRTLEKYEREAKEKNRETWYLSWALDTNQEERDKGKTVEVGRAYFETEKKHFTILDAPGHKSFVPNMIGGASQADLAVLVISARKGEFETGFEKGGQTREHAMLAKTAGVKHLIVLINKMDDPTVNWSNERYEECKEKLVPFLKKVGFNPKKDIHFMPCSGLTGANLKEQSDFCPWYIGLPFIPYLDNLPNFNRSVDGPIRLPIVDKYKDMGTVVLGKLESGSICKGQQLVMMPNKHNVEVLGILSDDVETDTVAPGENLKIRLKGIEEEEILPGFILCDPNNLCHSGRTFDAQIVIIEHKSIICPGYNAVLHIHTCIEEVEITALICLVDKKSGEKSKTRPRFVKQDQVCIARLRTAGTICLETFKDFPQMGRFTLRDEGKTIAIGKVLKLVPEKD
# T1 sequence (Q96SW2 whole entry): as the sequence (Q96SW2 whole entry) above
# T1 sequence (Q16531 whole entry partner): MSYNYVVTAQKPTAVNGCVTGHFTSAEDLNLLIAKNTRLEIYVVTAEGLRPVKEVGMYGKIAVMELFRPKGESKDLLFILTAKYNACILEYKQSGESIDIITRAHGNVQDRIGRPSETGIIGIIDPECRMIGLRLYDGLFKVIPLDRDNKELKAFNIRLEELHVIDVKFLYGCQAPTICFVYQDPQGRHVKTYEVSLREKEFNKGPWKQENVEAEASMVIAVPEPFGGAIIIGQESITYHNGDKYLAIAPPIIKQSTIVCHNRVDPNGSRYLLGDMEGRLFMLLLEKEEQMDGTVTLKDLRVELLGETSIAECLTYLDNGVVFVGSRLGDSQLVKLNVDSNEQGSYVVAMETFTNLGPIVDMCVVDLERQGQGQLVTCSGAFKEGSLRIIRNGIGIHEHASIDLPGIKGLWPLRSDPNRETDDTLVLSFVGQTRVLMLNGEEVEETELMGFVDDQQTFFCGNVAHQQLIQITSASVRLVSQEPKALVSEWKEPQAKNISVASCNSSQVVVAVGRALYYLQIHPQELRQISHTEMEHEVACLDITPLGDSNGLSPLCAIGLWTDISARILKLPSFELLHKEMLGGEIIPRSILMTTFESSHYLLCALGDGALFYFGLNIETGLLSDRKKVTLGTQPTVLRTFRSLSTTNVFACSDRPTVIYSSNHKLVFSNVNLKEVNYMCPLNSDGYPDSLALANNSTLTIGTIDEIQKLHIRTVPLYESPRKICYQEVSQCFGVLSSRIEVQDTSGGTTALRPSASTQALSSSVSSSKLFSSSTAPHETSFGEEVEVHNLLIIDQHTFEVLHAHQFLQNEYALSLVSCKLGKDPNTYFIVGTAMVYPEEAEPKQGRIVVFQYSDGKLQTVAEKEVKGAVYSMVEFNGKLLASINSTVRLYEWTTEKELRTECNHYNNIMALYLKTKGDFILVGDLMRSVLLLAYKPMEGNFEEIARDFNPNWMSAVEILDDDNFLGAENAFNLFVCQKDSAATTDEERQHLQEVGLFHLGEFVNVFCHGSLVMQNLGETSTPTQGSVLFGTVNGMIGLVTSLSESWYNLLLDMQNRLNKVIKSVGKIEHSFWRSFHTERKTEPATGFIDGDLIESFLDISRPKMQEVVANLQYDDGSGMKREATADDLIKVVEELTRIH
smiles,measurement,setting,value
"CC(C)C[C@H](NC(=O)[C@H](Cc1ccccc1)NC(=O)c1cnccn1)B(O)O [Bortezomib, reference compound]",GSPT1 level with proteasome inhibitor added,GSPT1 [1],rescued GSPT1 from degradation
O=C1CCC(N2Cc3ccc(CNC(=O)Nc4ccc(Br)cc4)cc3C2=O)C(=O)N1 (stereo not drawn) [Compound 9],IC50,[2]; bound stated,< 1100 nM
same,IC50,[2]; bounds stated,< 600 nM
same,EC50,[3],> 2000 nM
same,EC50,[4],> 10000 nM
same,DC50,GSPT1 [5],> 300 nM
COc1ccc(CCNC(=O)NCc2ccc3c(c2)C(=O)N(C2CCC(=O)NC2=O)C3)cc1 (stereo not drawn) [Compound 51],IC50,[2]; bounds stated,< 600 nM
same,EC50,[3],> 2000 nM
same,EC50,[4],> 10000 nM
COc1ccccc1CNC(=O)NCc1ccc2c(c1)C(=O)N(C1CCC(=O)NC1=O)C2 (stereo not drawn) [Compound 60],IC50,[2]; bounds stated,< 600 nM
same,EC50,[3],> 2000 nM
same,EC50,[4],> 10000 nM

# From patent US20240261274A1, “TREATMENT OF MYC-DRIVEN CANCERS WITH GSPT1 DEGRADERS” (MONTE ROSA THERAPEUTICS, INC., priority 2021, published 2024)
